The results in this text go back to US11708564B2 (priority 2017, dated 2023).

Structures are written as SMILES.

The subject of this test is active D-proline reductase. Put plainly: Conversion of D-proline analog substrates by E. coli cells expressing active D-proline reductase (PrdA, PrdB, PrdH), TLC analysis. Format: biochemical, Peptoclostridium difficile 630. The note with it: substrate 10 mM, DTT 25 mM, 6 hours, E. coli BL21(DE3) cells OD 50 in 0.1 M phosphate buffer pH 8.0, TLC. On the procedure:
The obtained E. coli cells were adjusted to a final OD of 50, followed by centrifugation. After primary washing, E. coli cells were diluted with 1 mL of 0.1 M phosphate buffer (pH 8.0). Next, each 200 ul of the diluted samples was dispensed, and DTT (final concentration of 25 mM) and various substrates (final concentration of 10 mM, FIG. 11A) were added and allowed to react for 6 hours, followed by TLC analysis.
When cis-4-hydroxy-D-proline or trans-4-hydroxy-D-proline is subjected to the conversion reaction, 5-amino-4-hydroxypentanoic acid is produced.
As for `O=C(O)[C@H]1C[C@H](O)CN1` [trans-4-hydroxy-D-proline], the “product formation on TLC after the conversion reaction” value (shortened to “product formation on TLC”) was “substrate reduction on TLC and newly formed TLC spot were observed”; the “reaction rate of the conversion by D-proline reductase, compared with D-proline” value is listed as “relatively low reaction rate, as compared with D-proline”.
`O=C(O)[C@H]1C[C@@H](O)CN1` [cis-4-hydroxy-D-proline]: the “product formation on TLC” value was “substrate reduction on TLC and newly formed TLC spot were observed”; the “reaction rate of the conversion by D-proline reductase, compared with D-proline” value was “relatively low reaction rate, as compared with D-proline”.
For the compound `O=C(O)[C@H]1CCN1` [D-azetidine-2-carboxylic acid], the “product formation on TLC” value is given as “GABA production was clearly observed on TLC” and the “reaction rate of the conversion by D-proline reductase, compared with D-proline” value is reported as “relatively low reaction rate, as compared with D-proline”.
